Measurements: patent US4791135A (priority 1987, dated 1988)

Experiments:
[1] = system: Plasmodium falciparum D-6 (Sierra Leone clone) and W-2 (Indochina clone); experiment: In vitro antimalarial activity against both clones, summarised in words; format: cell-based
Experimental: (§1) The former clone is a strain that is resistant to mefloquine and the latter, to chloroquine, pyrimethamine, sulfadoxine, and quinine.
(§2) In vitro assays were conducted using a modification of the semiautomated microdilution technique of Desjardins et al., Antimicrob. Agents Chemoether., 1979, Volume 16, page 710 and Milhous et al., Antimicrob. Agents Chemother., 1985, Volume 27, page 525. Two P. falciparum malaria parasite clones, designated as Indochina (W-2) and Sierra Leone (D-6), were utilized in susceptibility testing. They were derived by direct visualization and micromanipulation from patient isolates obtained by the Centers for Disease Control, Atlanta, GA in 1980 and 1982, respectively. The patients had acquired infections either in Vietnam or Sierra Leone. The Indochina clone is resistant to the antimalarials chloroquine, sulfadoxine, pyrimethamine, and quinine, whereas the Sierra Leone, is resistant to mefloquine but susceptible to chloroquine, quinine, sulfadoxine, and pyrimethamine. Test compounds were initially dissolved in DMSO and 70% ethanol and diluted in RPMI 1640 culture medium with 10% human plasma to 400 fold. Drugs were subsequently further diluted using the Cetus Pro/Pette (Perkin-Elmer Corp., Norwalk, CT) over a range of 1.56-100×10^-9 molar. Parasite inocula (at 0.5% parasitemia and a 1% hematocrit) were incubated for 24 hours and added to equimolar concentrations of each test compound prior to the addition of ^3 H-hypoxanthine. After a further incubation of 18 hours, particulate matter was harvested from each microtiter well using an automated cell harvester (Skatron, Inc., Sterling, VA). Uptake of ^3 H-hypoxanthine was measured using a scintillation spectrophotometer (Model LS3801, Beckman Instruments, Irvine, CA). Concentration-response data were analyzed by nonlinear regression and the IC50 's (50% inhibitory concentrations) for each compound were calculated.

[2] = system: malaria; conditions: background; cited from earlier work
[3] = system: cerebral malaria; conditions: background; cited from earlier work
[4] = system: malaria; conditions: background, reported; cited from earlier work
[5] = system: P. falciparum Sierra Leone (D-6) clone; experiment: In vitro antimalarial susceptibility, 3H-hypoxanthine uptake, Sierra Leone (D-6) clone; format: cell-based, Plasmodium falciparum
Experimental: as §1
as §2, with “CA).” for “CA). Concentration-response data were analyzed by nonlinear regression and the IC50 's (50% inhibitory concentrations) for each compound were calculated.”

[6] = system: P. falciparum Indochina (W-2) clone; experiment: In vitro antimalarial susceptibility, 3H-hypoxanthine uptake, Indochina (W-2) clone; format: cell-based, Plasmodium falciparum; conditions: Plasmodium falciparum
Experimental: as §1
as §2, with “CA).” for “CA). Concentration-response data were analyzed by nonlinear regression and the IC50 's (50% inhibitory concentrations) for each compound were calculated.”

[7] = physchem; format: physicochemical
Experimental: To compare the relative stability of the new agents vs. artesunic acid, stability studies of compound 8d and compound 1 were conducted in 2.5% K2 CO3 /D2 O solution at room temperature and were monitored by PMR. [drawing 8]
To a 5 mm NMR tube containing 10 mg of sample was added 0.5 mL of 2.5% K2 CO3 /D2 O solution. The initial spectrum of the solution was taken within 5 minutes, and again at intervals thereafter. The extent of hydrolysis was estimated by the following equation:
% Decomposition=(B/2A+B)×100
where A=integration of H-10 (5.80 ppm, d, J=10.8 Hz, 1H) and H-12 (5.71 ppm, s, 1H) of artesunate; B=integration of the singlet at 2.42 ppm for the potassium succinate formed. With time, the intensity of potassium succinate (2.42 ppm) signal increases, while that of H-10 and H-12 of artesunate decreases. The stability study of compound 1 in 5% NaHCO3 /D2 O was also carried out by the same procedure.

[8] = Water solubility; format: physicochemical
[9] = Stability of the free acid (PMR spectrum on standing); format: physicochemical; conditions: gradual changes in PMR spectrum on standing
From the text: Hydrolysis of the ester (compound 5a) with 2.5% KOH/MeOH gave the corresponding potassium salt which was purified by reverse phase chromatography. Conversion of the salt (compound 7a) to the free acid (compound 8a) was achieved by acidification with acetic acid. The free acid appears to be unstable, as evidenced by gradual changes seen in its PMR spectrum on standing. This may be due to the instability of the acetal or ketal functions of the molecule under acidic conditions. In contrast, compounds 7b through 7d were smoothly converted to their corresponding stable free acids (compounds 8b-d).

In the case of `C[C@@H]1CC[C@H]2[C@@H](C)C(O)O[C@@H]3O[C@@]4(C)CC[C@@H]1[C@]32OO4` (stereo partly shown) [Compound 2, Dihydroartemisinin], the “cross-resistance to mefloquine, chloroquine, pyrimethamine, sulfadoxine, quinine” value ([1]; D-6 and W-2 clones) is given as “not cross-resistant”, the cross-resistance to chloroquine [2] is given as “Neither artemisinin nor dihydroartemisinin exhibit cross-resistance to chloroquine” and the “efficacy against cerebral malaria in man” value [3] is given as “proven efficacious against cerebral malaria in man”. The “therapeutic activity compared with its parent compound artemisinin” value [4] was “more therapeutically active than its parent compound”.

In the case of `CC1CCC2C(C)C(OCc3ccc(C(=O)O)cc3)OC3OC4(C)CCC1C32OO4` (stereo not shown) [Compound 7d, Potassium p-(10-Dihydroartemisininoxy)methylbenzoate], the “In vitro antimalarial activity IC50, Sierra Leone (D-6)” value [5] is reported as 1.74 ng/mL, the IC50 [6] is reported as 0.92 ng/mL and the stability in solution [7] is reported as “stable in solution”. The “in vitro antimalarial activity relative to parent compounds” value ([1]; in words, relative to artemisinin (3) or compounds 2 and 3) was “comparable in vitro activity to artemisinin” and the water solubility [8] was “water soluble”.

With `CC1CCC2C(C)C(OCC(=O)O)OC3OC4(C)CCC1C32OO4` (stereo not shown) [Compound 8a, 2-(10-Dihydroartemisininoxy)acetic acid] the “stability of free acid” value [9] was “unstable”.
